Results taken from patent publication US20120321896A1, “RASAGILINE MESYLATE HAVING LARGE PARTICLE SIZE AND A PROCESS FOR PREPARATION THEREOF” (priority 2010, published 2012).
Counter-ions that a name gives are not always drawn.

Details: volume distribution; average of three measurements; recrystallised from isopropyl alcohol, gradual cooling in around 15 hours without stirring, no milling
Description: Measurement and characterization of particle size distributions is known in the art. It is possible to compare samples of particulate rasagiline mesylate on the basis of individual points on a cumulative particle size distribution curve. The measurements are represented as d(0.X)-Y (where X and Y are Arabic numerals), each “d” describing an individual point on a cumulative PSD curve. The number “X” represents the percentage (number, volume, or weight) of particles in the population having a nominal size up to and including “Y”. Thus, D90 or d(0.9) of greater than 255 μm is a characteristic of a PSD in which 90% (number, volume, or weight) of the particles in a population have a nominal size of about 255 μm or more (at least some particles having a nominal dimension of 255 μm) and so forth. When PSD is determined by the well-know laser-diffraction method described herein, the D90 measurement depicts a volume average.
Particle Size Distribution (PSD) is determined by laser diffraction in Malvern master Sizer 2000 equipment or its equivalent:
Spread sufficient powder in the dry powder holder of sampler holding unit and close it by the sliding cover. Operate the instrument for particle size analysis.
Report the average of three measurements.

Structure (SMILES) | Particle size data (D90)
C#CCN[C@@H]1CCc2ccccc21 [Example-2, Rasagiline mesylate] | 337.1 μm
C#CCN[C@@H]1CCc2ccccc21 [Example-1, Rasagiline mesylate] | 292.2 μm
